Consider 22 molecules from US7521454B2 (Dainippon Sumitomo Pharma Co., Ltd., priority 2001, dated 2009).

For one series, the system named is mouse spleen cell. The experiment in a line: cells. The note with it: Mus musculus, 24 h, read-out: Interferon-inducing activity: Minimum effective concentration. The series is classed as cell-based.
The next series has as its system Balb/c male mouse. Nature of the series: Interferon-inducing activity in mouse (in vivo), serum interferon titer after oral dosing.
Series [1] in a line: Solubility in citric acid/disodium phosphate buffers. The conditions noted are these: for solubility at 30 min: thermodynamic from solid.
Method: 5.53% citric acid (monohydrate) and 1.75% disodium phosphate (anhydrous) were mixed together to prepare buffers (pH 2.5, 5.5, 7.4). A compound was added thereto, the mixture was stirred in a vortex mixer and subjected to ultrasonication for 30 minutes. Thereafter, the resultant was stirred in a vortex mixer again and then centrifuged at 15,000 rpm for 20 minutes. The levels of the compounds in the supernatants were then quantified by HPLC.
A further series relates to IL-5 production. Nature of the series: Inhibitory activity against Th2 cytokine produced from sensitized spleen cells: IL-5. The series is classed as cell-based, mouse. The note with it: Mus musculus, 72 h, read-out: Inhibitory activity against IL-5 production. As to the method: (§1) A 7-week-old BALB/c mouse was immunized intraperitoneally with aluminum hydroxide gel (4 mg, 100 μl) having 10 μg of ovalbumin adsorbed thereon, and it was subjected to additional immunization with the same agent 14 days later. Seven days thereafter, spleen was taken out, and suspended in RPMI-1640 comprising inactivated fetal bovine serum (10%), 2-mercaptoethanol ([…]), penicillin G (100 U/ml), and streptomycin (100 μg/ml). Thus, a splenic cell suspension was prepared. Ovalbumin (0.5 mg/ml) and a test compound were added to a splenic cell suspension (5×10^6 cell/200 μl/well), and the resultant was cultured at 37° C. in the presence of 5% CO2 for 3 days. The cytokine level in the culture supernatant was quantified by ELISA. IFN-γ and IL-4 were assayed using a kit available from Amersham, and IL-5 was assayed using a kit available from Endogen.

A further series deals with IL-4 production. The experiment in a line: Inhibitory activity against Th2 cytokine produced from sensitized spleen cells: IL-4. The format is cell-based, mouse. The conditions noted are these: Mus musculus, 72 h, read-out: Inhibitory activity against IL-4 production. On the procedure: as §1
[2] abbreviates: dosage 0.1 mg/kg oral, serum 2 h after dosing, Balb/c mouse.
[3] abbreviates: dosage 0.3 mg/kg oral, serum 2 h after dosing, Balb/c mouse.
The mark [4] stands for this setting: citric acid/disodium phosphate buffer, pH 2.5, aqueous buffer.
The mark [5] stands for this setting: citric acid/disodium phosphate buffer, pH 5.5, aqueous buffer.
The mark [6] stands for this setting: citric acid/disodium phosphate buffer, pH 7.4, aqueous buffer.

Each structure is given as a SMILES string. In brackets after ≈: the same amount, converted by molar mass.

In general, solubility refers to how much of the substance goes into solution per volume.

Regarding `CCCCOc1nc(N)c2nc(O)n(Cc3ccc(OCC)nc3)c2n1` [Example 3, 2-Butoxy-9-(6-ethoxy-3-pyridylmethyl)-8-hydroxyadenine], the minimal effective concentration with mouse spleen cell was 0.001 µM. Besides, the Interferon-inducing activity with Balb/c male mouse (po, 0.1 mg/kg, 2 h) is listed as 353 ± 73 U/ml; with Balb/c male mouse (po, 0.3 mg/kg, 2 h), 1966 ± 532 U/ml.

Turning to `CCCCOc1ccc(Cn2c(O)nc3c(N)nc(OCCCC)nc32)cn1` [Example 4, 2-Butoxy-9-(6-n-butoxy-3-pyridylmethyl)-8-hydroxyadenine], the minimal effective concentration in the series on mouse spleen cell is 0.01 µM.

Take `CCCCOc1nc(N)c2nc(O)n(Cc3cccnc3Cl)c2n1` [Example 5, 2-Butoxy-9-(2-chloro-3-pyridylmethyl)-8-hydroxyadenine]: the minimal effective concentration with mouse spleen cell came to 0.003 µM. Also, the Interferon-inducing activity in the series with Balb/c male mouse (po, 0.1 mg/kg, 2 h) was 133 ± 33 U/ml; in the series on Balb/c male mouse (po, 0.3 mg/kg, 2 h) it was 473 ± 9 U/ml.

Consider `CCCCOc1nc(N)c2nc(O)n(Cc3cccnc3OC)c2n1` [Example 6, 2-Butoxy-8-hydroxy-9-(2-methoxy-3-pyridylmethyl)adenine], for which, in the series with mouse spleen cell, the minimal effective concentration came out at 0.001 µM. Moreover, the Interferon-inducing activity amounted to 569 ± 42 U/ml with Balb/c male mouse (po, 0.1 mg/kg, 2 h) and 1222 ± 248 U/ml with Balb/c male mouse (po, 0.3 mg/kg, 2 h).

With `CCCCOc1nc(N)c2nc(O)n(Cc3cnc(Cl)c(OC)c3)c2n1` [Example 7, 2-Butoxy-9-(6-chloro-5-methoxy-3-pyridylmethyl)-8-hydroxyadenine], in the series on mouse spleen cell, the minimal effective concentration worked out at 0.001 µM. For the same molecule, the Interferon-inducing activity in the series with Balb/c male mouse (setting [2]) is given as 347 ± 149 U/ml; with Balb/c male mouse (setting [3]) it was 845 ± 22 U/ml.

Turning to `CCCCOc1nc(N)c2nc(O)n(Cc3cccnc3)c2n1` [Example 8, 2-Butoxy-8-hydroxy-9-(3-pyridylmethyl)adenine], the minimal effective concentration with mouse spleen cell came to 0.001 µM. For the same molecule, the Interferon-inducing activity with Balb/c male mouse (po, 0.01 mg/kg, 2 h) worked out at 13 ± 5 U/ml; in the series with Balb/c male mouse (po, 0.03 mg/kg, 2 h), 167 ± 97 U/ml; in the series on Balb/c male mouse (po, 0.1 mg/kg, 2 h), 725 ± 141 U/ml; in the series on Balb/c male mouse (po, 0.3 mg/kg, 2 h), 936 ± 438 U/ml. In addition, the solubility at 30 min is 784 µg/mL (≈ 2490 µM) in series [1] (setting [4]), 20 µg/mL (≈ 63.6 µM) in series [1] (setting [5]) and 18 µg/mL (≈ 57.3 µM) in series [1] (setting [6]).

Consider `CCCCOc1nc(N)c2nc(O)n(Cc3ccncc3)c2n1` [Example 9, 2-Butoxy-8-hydroxy-9-(4-pyridylmethyl)adenine], for which the minimal effective concentration with mouse spleen cell came out at 0.003 µM. Moreover, the Interferon-inducing activity with Balb/c male mouse (po, 0.3 mg/kg, 2 h) was found to be 539 ± 107 U/ml. Besides, the solubility at 30 min in series [1] (setting [4]) came to 350 µg/mL (≈ 1110 µM); in series [1] (setting [5]), 4 µg/mL (≈ 12.7 µM); in series [1] (setting [6]), 3 µg/mL (≈ 9.54 µM).

In the case of `CCCCOc1nc(N)c2nc(O)n(Cc3cnccn3)c2n1` [Example 10], the activity at 0.001 µM with IL-5 production is 91%; in the series on IL-4 production it was 54%. The values for the activity at 0.01 µM in the series on IL-5 production and in the series on IL-4 production were 32% and 3%, respectively. Besides, the activity at 0.1 µM is 15% in the series on IL-5 production and below 1% with IL-4 production. The Interferon-inducing activity was found to be 89 ± 22 U/ml in the series on Balb/c male mouse (dosage 0.03 mg/kg oral, serum 2 h after dosing, Balb/c mouse); 409 ± 267 U/ml with Balb/c male mouse (setting [2]); 733 ± 256 U/ml in the series with Balb/c male mouse (setting [3]). Moreover, the solubility at 30 min in series [1] (pH 2.5, aqueous buffer) was determined as 34 µg/mL (≈ 108 µM); in series [1] (pH 5.5, aqueous buffer), 15 µg/mL (≈ 47.6 µM); in series [1] (pH 7.4, aqueous buffer) it was 10 µg/mL (≈ 31.7 µM).

`CCCCOc1nc(N)c2nc(O)n(Cc3cnc(Cl)c(Cl)c3)c2n1` [Example 11, 2-Butoxy-9-(5,6-dichloro-3-pyridylmethyl)-8-hydroxyadenine]: the minimal effective concentration with mouse spleen cell is 0.003 µM. Besides, the Interferon-inducing activity amounted to 279 ± 177 U/ml in the series with Balb/c male mouse (setting [2]) and 568 ± 160 U/ml with Balb/c male mouse (setting [3]).

Consider `CCCCOc1nc(N)c2nc(O)n(Cc3ccc(Cl)nc3Cl)c2n1` [Example 12, 2-Butoxy-9-(2,6-dichloro-3-pyridylmethyl)-8-hydroxyadenine], for which, in the series with mouse spleen cell, the minimal effective concentration amounted to 0.01 µM. This molecule had an Interferon-inducing activity in the series with Balb/c male mouse (setting [3]) of 31 ± 5 U/ml.

In the case of `CCCCOc1nc(N)c2nc(O)n(Cc3ccc(N4CCCCC4)nc3)c2n1` [Example 13, 2-Butoxy-9-(6-piperidino-3-pyridylmethyl)-8-hydroxyadenine], the minimal effective concentration in the series on mouse spleen cell is 0.003 µM. For the same molecule, the Interferon-inducing activity in the series with Balb/c male mouse (po, 0.3 mg/kg, 2 h) stood at 304 ± 138 U/ml.

`CCCCOc1nc(N)c2nc(O)n(Cc3ccc(N4CCCC4)nc3)c2n1` [Example 14, 2-Butoxy-9-(6-(1-pyrrolidinyl)-3-pyridylmethyl)-8-hydroxyadenine]: the minimal effective concentration in the series on mouse spleen cell was 0.001 µM. Besides, the Interferon-inducing activity with Balb/c male mouse (po, 0.3 mg/kg, 2 h) is reported as 570 ± 63 U/ml.

Consider `CCCCOc1nc(N)c2nc(O)n(Cc3ccc(N4CCOCC4)nc3)c2n1` [Example 15, 2-Butoxy-9-(6-morpholino-3-pyridylmethyl)-8-hydroxyadenine], for which, in the series with mouse spleen cell, the minimal effective concentration was 0.001 µM. Further, the Interferon-inducing activity with Balb/c male mouse (po, 0.1 mg/kg, 2 h) stood at 52 ± 32 U/ml; with Balb/c male mouse (po, 0.3 mg/kg, 2 h), 603 ± 147 U/ml. The solubility at 30 min in series [1] (setting [4]) is 140 µg/mL (≈ 350 µM); in series [1] (setting [5]), 1 µg/mL (≈ 2.5 µM); in series [1] (setting [6]), below 1 µg/mL.

With `CCCCOc1nc(N)c2nc(O)n(Cc3ccc(N(C)C)nc3)c2n1` [Example 16, 2-Butoxy-9-(6-dimethylamino-3-pyridylmethyl)-8-hydroxyadenine], the minimal effective concentration in the series with mouse spleen cell was 0.001 µM. The Interferon-inducing activity stood at 251 ± 46 U/ml in the series with Balb/c male mouse (po, 0.1 mg/kg, 2 h) and 716 ± 155 U/ml in the series on Balb/c male mouse (po, 0.3 mg/kg, 2 h). This molecule also showed a solubility at 30 min in series [1] (setting [4]) of 293 µg/mL (≈ 820 µM).

Consider `CCCCNc1nc(N)c2nc(O)n(Cc3cccnc3Cl)c2n1` [Example 18, 2-Butylamino-9-(2-chloro-3-pyridylmethyl)-8-hydroxyadenine], for which the minimal effective concentration in the series on mouse spleen cell stood at 0.01 µM. The Interferon-inducing activity in the series with Balb/c male mouse (po, 0.3 mg/kg, 2 h) was determined as 94 ± 49 U/ml.

With `CCCCNc1nc(N)c2nc(O)n(Cc3ccc(Cl)nc3Cl)c2n1` [Example 23, 2-Butylamino-9-(2,6-dichloro-3-pyridylmethyl)-8-hydroxyadenine], the minimal effective concentration in the series on mouse spleen cell turned out to be 0.01 µM. Further, the Interferon-inducing activity was 42 ± 7 U/ml in the series with Balb/c male mouse (setting [2]) and 414 ± 118 U/ml in the series on Balb/c male mouse (setting [3]).

Consider `CCCCNc1nc(N)c2nc(O)n(Cc3ccc(N(C)C)nc3)c2n1` [Example 24, 2-Butylamino-9-(6-dimethylamino-3-pyridylmethyl)-8-hydroxyadenine], for which the minimal effective concentration in the series with mouse spleen cell is 0.003 µM. Moreover, the Interferon-inducing activity with Balb/c male mouse (po, 0.3 mg/kg, 2 h) is reported as 403 ± 146 U/ml. For the same molecule, the solubility at 30 min in series [1] (setting [4]) was determined as 27000 µg/mL (≈ 75800 µM); in series [1] (setting [5]) it was 22 µg/mL (≈ 61.7 µM); in series [1] (setting [6]), 1 µg/mL (≈ 2.81 µM).

For `CCCCOc1nc(N)c2nc(O)n(Cc3cccnc3C)c2n1` [Example 26, 2-Butoxy-8-hydroxy-9-(2-methyl-3-pyridylmethyl)adenine], the minimal effective concentration in the series on mouse spleen cell came out at 0.001 µM. Besides, the Interferon-inducing activity in the series on Balb/c male mouse (po, 0.03 mg/kg, 2 h) is listed as 121 ± 11 U/ml; in the series on Balb/c male mouse (po, 0.1 mg/kg, 2 h), 433 ± 366 U/ml; in the series on Balb/c male mouse (po, 0.3 mg/kg, 2 h), 780 ± 190 U/ml. Also, the solubility at 30 min in series [1] (setting [4]) is above 1000 µg/mL; in series [1] (setting [5]), 6 µg/mL (≈ 18.3 µM); in series [1] (setting [6]), 3 µg/mL (≈ 9.14 µM).

`CCCCNc1nc(N)c2nc(O)n(Cc3cccnc3C)c2n1` [Example 28, 2-Butylamino-8-hydroxy-9-(2-methyl-3-pyridylmethyl)adenine]: in the series with mouse spleen cell, the minimal effective concentration turned out to be 0.01 µM. Further, the Interferon-inducing activity is recorded as 186 ± 62 U/ml in the series with Balb/c male mouse (po, 0.1 mg/kg, 2 h) and 1462 ± 260 U/ml in the series on Balb/c male mouse (po, 0.3 mg/kg, 2 h). Moreover, the solubility at 30 min in series [1] (setting [4]) was above 1000 µg/mL; in series [1] (setting [5]), 8 µg/mL (≈ 24.4 µM); in series [1] (setting [6]), 4 µg/mL (≈ 12.2 µM).

`CCCCNc1nc(N)c2nc(O)n(Cc3ccc(C)nc3Cl)c2n1` [Example 29, 2-Butylamino-9-(2-chloro-6-methyl-3-pyridylmethyl)-8-hydroxyadenine]: the minimal effective concentration with mouse spleen cell amounted to 0.01 µM. In the series with Balb/c male mouse (setting [3]), this molecule yielded an Interferon-inducing activity of 619 ± 268 U/ml.

As to `COCCOc1nc(N)c2nc(O)n(Cc3cccnc3)c2n1` [Example 31, 8-Hydroxy-2-(2-methoxy)ethoxy-9-(3-pyridylmethyl)adenine], the “Solubility (level of compound in supernatant)” value in series [1] (pH 2.5 buffer) was >1,000 μg/ml; in series [1] (pH 5.5 buffer), 353 µg/mL; in series [1] (pH 7.4 buffer), 322 µg/mL.

For the molecule `COc1nc(N)c2nc(O)n(Cc3cccnc3)c2n1` [Example 32, 8-Hydroxy-2-methoxy-9-(3-pyridylmethyl)adenine], the solubility at 30 min is above 1000 µg/mL in series [1] (setting [4]), 82 µg/mL (≈ 301 µM) in series [1] (setting [5]) and 25 µg/mL (≈ 91.8 µM) in series [1] (setting [6]).
